The text below walks through data of paper PMC9551036, “A selective and orally bioavailable VHL-recruiting PROTAC achieves SMARCA2 degradation in vivo” (Nature Communications, 2022).

One experiment concerns the target SMARCA4 (Homo sapiens, UniProt P51532). Briefly: SMARCA4 capillary electrophoresis protein assay in RKO cells. The class given is cell-based. Also noted: endogenous in cells; host or cells: RKO, HCT116, LU99, HCC-364, HCT-15, HCC4006, SK-N-AS. To be noted: mean ± SD. The method, then: 130,000–200,000 cells were seeded in 24-well plates and incubated until settled down or overnight. Compounds were dissolved in DMSO and added to cells in indicated concentrations using a digital dispenser following an optional media change. Cells were incubated for 4 or 18 h as indicated. For SMARCA2/4 half-life determination, 150,000 or 200,000 cells were seeded in 24-well plates. The next day, 50 µg/ml cycloheximide (Sigma) was added and cells were incubated for 1–24 h. For SMARCA2/4 re-synthesis measurements, 200,000 cells were seeded in 24-well plates. The next day, 100 nM compound 6 was added for 4 h to degrade SMARCA2/4, and a sample was taken as baseline for normalisation. To allow re-synthesis, a VHL binder (compound 32, 25 or 50 µM) was then added for 3 or 24 h. Medium was removed, cells were washed with PBS and lysed with 80 µl Lysis Buffer (MSD Tris Lysis Buffer (#R60TX-2) + Halt Inhibitor Cocktail (100x) + Benzonase 0.5 µL/ml). Samples were frozen at −80 °C and thawed at room temperature before use. Samples were transferred to a V-bottom plate and insoluble debris was pelleted by centrifugation for 5 min at maximum speed. The supernatant was transferred to a fresh plate. Master Mix and Ladder were prepared according to manufacturer’s instructions for 12–230 kDa Wes Separation Module, 8 × 25 capillary cartridges, Protein Simple #SM-W004 with Anti-Rabbit Detection Module for Wes, Peggy Sue or Sally Sue, Protein Simple #DM-001. 4.8 µl lysate were mixed with 1.2 µl Master Mix to achieve a protein concentration of ~0.5 µg/µl. Antibodies were diluted in Antibody Diluent II (SMARCA2 Sigma #HPA029981 RRID:AB_10602406 1:25–100, SMARCA4 Cell Signalling #49360 clone D1Q7F RRID:AB_2728743 1:15–120 or Abcam #ab110641 clone EPNCIR111A RRID:AB_10861578 1:60, GAPDH Abcam #ab9485 RRID:AB_307275 1:250). Wes plates were prepared and run according to manufacturer’s instructions. Proteins were quantified with accompanying Compass Software. SMARCA2/4 protein levels were normalised to GAPDH. […] Where applicable, curves were fitted using a 4-parametric logistic model.

For another experiment, the target named is T1, PBRM1 BD (Homo sapiens, UniProt Q86U86).
T1 construct: GST (TEV site) (N); made in house; host or cells: Escherichia coli BL21(DE3)
As to the kind of experiment: TR-FRET binary and ternary (PROTAC + VCB) affinity, PBRM1 bromodomain. To be noted: individual replicates. The class given is binding. A general note: Time-resolved FRET reads energy transfer from a long-lived donor to a nearby acceptor.

Another experiment relates to NCI-H1568 cells. Briefly: Cell viability assay (CellTiter Glo) in NCI-H1568. The class given is cell-based, human. To be noted: for EC50: NCI-H1568 ([…]), mean ± SD, read-out: EC50 cell proliferation (CellTiter Glo); for IC50: NCI-H1568, (18h), CellTiter Glo, individual replicates, read-out: NCI-H1568 (18h) CTG. As to the method: 500–2000 cells were seeded in white, clear bottom 96-well plates (Corning or Perkin Elmer) in 180–200 µl medium per well. The next day, compounds were added using a digital dispenser and a T0 sample was measured for reference. […], and viability (luminescence) was measured using CellTiter Glo or CellTiter Glo 2.0 (Promega) according to manufacturer’s instructions after equilibrating cells and reagents at room temperature and 10–20 min incubation time while shaking.

The target in experiment [1] is T2, VCB: PROTAC: SMARCA2^BD ternary complex (Homo sapiens, UniProt P51531).
T2 construct: P51531-2, residues 1373-1493 with additional N-terminal SM residues; GST (TEV site) (N); His6 (TEV site) (N, cleaved yes); made in house; host or cells: SMARCA2^BD: Escherichia coli BL21(DE3)
As to the kind of experiment: TR-FRET ternary complex affinity and cooperativity, SMARCA2. The class given is binding.

For another experiment, the target named is SMARCA2 (Homo sapiens, UniProt P51531). Briefly: Imaging-based SMARCA2 protein assay in RKO cells. The class given is cell-based. Also noted: endogenous in cells; host or cells: RKO, NCI-H1568, A549, HCT116, LU99, HCC-364, HCT-15, HCC4006, SK-N-AS. As to conditions: individual replicates. The method, then: 1250 cells per well in 60 µl medium were plated in flat bottom, poly-lysin coated 384-well plates (CellCarrier Ultra, Perkin Elmer). The next day, test compounds (10 µl of serial dilutions) and DMSO controls were diluted in DMEM medium such that the final DMSO content was <1% or were added using an ultrasound dispensing system. 4 wells were reserved for a background measurement. […] After aspirating the fixing solution, the cells were washed once with 25 µl PBS. 25 µl of blocking buffer (10% goat serum in PBS) was added and cells were incubated for 30 min, then washed once with PBS. […] Cells were again washed once with PBS. […] The cell layer was then washed once with 25 µl PBS, the wells were filled with 25 µl PBS and the plates were sealed with an adhesive sheet. They were then imaged on the Opera Phoenix (mean intensity in the nucleus). […] EC50 values were computed using a 4-parametric logistic model.

Setting [2] is: PROTAC + VCB, read-out: Ternary PBRM1 BD EC50 (PROTAC + VCB).
The mark [3] stands for this setting: binary, PROTAC alone, read-out: PBRM1 EC50.
Setting [4] is: binary, PROTAC alone, individual replicates, read-out: SMARCA2 BD EC50.
Setting [5] is: 4h, read-out: RKO (4h) SMARCA2 DC50.
Setting [6] is: 18h, read-out: RKO (18h) SMARCA2 DC50.
[7] abbreviates: TR-FRET competition for SMARCA2BD, without VCB, mean ± SD, read-out: TR-FRET SMARCA2BD EC50.

Where “and” joins values, the source holds several entries; their conditions need not be identical. Equal entries are not always repeated. Where two headings read alike, the source gives them in different places.

T2 sequence (P51531 with tags, fused parts or gaps isoform P51531-2): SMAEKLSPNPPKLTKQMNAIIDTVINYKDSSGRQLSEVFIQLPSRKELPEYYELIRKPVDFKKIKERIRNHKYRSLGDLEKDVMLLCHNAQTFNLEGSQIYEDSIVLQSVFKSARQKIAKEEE
SMARCA4, sequence (P51532 whole entry): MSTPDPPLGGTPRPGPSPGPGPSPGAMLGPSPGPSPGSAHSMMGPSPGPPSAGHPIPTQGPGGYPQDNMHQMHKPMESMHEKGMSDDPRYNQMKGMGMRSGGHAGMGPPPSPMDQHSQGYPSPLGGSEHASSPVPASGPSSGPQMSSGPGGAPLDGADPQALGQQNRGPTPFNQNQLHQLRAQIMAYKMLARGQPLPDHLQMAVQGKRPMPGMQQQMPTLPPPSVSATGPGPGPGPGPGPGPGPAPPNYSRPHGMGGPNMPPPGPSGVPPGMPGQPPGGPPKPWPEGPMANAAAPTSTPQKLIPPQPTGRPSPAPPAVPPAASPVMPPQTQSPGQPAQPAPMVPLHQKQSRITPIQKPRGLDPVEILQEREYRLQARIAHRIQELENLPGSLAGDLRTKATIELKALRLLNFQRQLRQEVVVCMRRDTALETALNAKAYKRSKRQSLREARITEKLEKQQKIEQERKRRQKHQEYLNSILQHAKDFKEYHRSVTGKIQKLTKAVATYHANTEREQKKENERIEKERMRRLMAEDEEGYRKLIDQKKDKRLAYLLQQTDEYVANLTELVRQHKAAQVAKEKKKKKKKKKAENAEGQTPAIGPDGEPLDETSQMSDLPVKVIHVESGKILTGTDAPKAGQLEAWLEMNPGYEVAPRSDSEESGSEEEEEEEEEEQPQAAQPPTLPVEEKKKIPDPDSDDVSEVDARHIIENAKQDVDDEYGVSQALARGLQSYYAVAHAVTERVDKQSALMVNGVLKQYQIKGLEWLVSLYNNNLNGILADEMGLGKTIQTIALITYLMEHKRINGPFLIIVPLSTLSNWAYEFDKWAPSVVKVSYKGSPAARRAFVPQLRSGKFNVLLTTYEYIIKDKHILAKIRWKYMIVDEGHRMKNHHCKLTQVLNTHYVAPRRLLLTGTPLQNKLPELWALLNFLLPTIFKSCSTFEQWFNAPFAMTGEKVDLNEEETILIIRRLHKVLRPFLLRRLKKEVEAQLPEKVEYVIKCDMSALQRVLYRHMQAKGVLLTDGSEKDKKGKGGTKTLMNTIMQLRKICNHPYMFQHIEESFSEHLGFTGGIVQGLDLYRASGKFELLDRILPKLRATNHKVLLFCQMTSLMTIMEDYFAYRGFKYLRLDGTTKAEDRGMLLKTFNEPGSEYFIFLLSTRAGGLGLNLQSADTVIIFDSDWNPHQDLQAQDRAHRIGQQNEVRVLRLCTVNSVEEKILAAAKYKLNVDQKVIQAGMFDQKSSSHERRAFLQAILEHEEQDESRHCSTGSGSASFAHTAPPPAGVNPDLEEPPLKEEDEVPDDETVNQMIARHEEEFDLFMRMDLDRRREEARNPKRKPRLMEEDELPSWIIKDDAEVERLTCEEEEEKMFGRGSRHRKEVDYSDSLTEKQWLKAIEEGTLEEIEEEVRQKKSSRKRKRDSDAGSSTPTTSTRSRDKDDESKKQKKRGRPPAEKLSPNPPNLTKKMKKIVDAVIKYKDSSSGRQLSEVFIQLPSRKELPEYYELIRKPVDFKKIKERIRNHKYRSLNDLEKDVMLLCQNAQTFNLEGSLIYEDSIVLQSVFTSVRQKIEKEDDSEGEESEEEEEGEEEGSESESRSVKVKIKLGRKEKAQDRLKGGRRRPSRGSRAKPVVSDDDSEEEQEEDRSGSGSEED
SMARCA2, sequence (P51531 whole entry): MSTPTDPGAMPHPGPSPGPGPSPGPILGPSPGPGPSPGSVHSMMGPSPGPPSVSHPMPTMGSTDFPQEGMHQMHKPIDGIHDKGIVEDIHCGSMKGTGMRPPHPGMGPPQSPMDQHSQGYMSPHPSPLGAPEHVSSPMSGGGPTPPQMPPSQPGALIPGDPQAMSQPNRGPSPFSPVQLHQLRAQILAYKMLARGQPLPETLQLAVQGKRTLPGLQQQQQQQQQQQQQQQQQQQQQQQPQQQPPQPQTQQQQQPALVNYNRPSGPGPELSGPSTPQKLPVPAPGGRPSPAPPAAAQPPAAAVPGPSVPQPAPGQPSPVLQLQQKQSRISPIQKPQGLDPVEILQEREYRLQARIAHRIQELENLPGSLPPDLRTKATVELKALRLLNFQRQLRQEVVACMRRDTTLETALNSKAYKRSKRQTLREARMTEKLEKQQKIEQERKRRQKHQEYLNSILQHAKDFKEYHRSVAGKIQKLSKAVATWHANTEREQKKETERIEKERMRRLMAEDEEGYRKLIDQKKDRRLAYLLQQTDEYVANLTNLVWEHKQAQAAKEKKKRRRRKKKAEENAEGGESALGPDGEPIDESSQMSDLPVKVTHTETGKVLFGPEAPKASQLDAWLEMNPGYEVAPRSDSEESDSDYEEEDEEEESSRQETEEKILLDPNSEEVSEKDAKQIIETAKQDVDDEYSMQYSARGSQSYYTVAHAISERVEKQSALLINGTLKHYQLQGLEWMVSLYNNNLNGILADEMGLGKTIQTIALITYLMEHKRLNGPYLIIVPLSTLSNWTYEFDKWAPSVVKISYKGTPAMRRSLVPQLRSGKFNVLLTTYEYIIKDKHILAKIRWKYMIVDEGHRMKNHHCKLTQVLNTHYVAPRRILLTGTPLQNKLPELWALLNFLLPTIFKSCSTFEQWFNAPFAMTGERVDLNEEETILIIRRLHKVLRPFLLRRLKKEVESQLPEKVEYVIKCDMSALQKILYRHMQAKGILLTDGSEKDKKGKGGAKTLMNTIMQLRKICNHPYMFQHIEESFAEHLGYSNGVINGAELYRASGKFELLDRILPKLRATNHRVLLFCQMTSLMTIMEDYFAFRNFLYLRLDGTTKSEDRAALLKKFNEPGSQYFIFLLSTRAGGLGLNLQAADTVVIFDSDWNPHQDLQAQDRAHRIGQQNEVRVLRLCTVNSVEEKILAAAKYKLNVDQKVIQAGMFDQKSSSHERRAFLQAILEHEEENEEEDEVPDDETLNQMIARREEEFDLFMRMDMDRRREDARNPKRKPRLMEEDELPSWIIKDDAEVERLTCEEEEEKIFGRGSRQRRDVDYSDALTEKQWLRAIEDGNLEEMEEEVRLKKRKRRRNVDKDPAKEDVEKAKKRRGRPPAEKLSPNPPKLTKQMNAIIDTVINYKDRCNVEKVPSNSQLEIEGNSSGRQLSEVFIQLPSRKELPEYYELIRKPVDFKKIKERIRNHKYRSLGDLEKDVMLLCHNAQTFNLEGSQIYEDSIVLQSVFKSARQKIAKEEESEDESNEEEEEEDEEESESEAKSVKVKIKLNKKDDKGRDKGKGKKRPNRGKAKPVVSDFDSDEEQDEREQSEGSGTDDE

Regarding `CN1CCN(c2nc(=O)c3ccccc3o2)CC1` [compound 14], the DC50 at SMARCA4 (RKO (4 h)), at SMARCA4 (RKO (18 h)), at SMARCA2 (setting [5]) and on SMARCA2 (setting [6]) was more than 25000 nM throughout. Also, the EC50 (at PBRM1 BD (setting [2]); at PBRM1 BD (setting [3]); in the experiment on NCI-H1568 cells; in experiment [1] (setting [4])) was more than 10000 nM each time. The IC50 with NCI-H1568 cells is more than 10000 nM.
For `CN1CCN(c2nc(=O)c3c(Br)cccc3o2)CC1` [compound 15], the DC50 on SMARCA4 (RKO (4 h)), on SMARCA4 (RKO (18 h)), on SMARCA2 (setting [5]) and on SMARCA2 (setting [6]) was more than 25000 nM each time. Also, the EC50 (at PBRM1 BD (setting [2]); on PBRM1 BD (setting [3]); in the experiment on NCI-H1568 cells; in experiment [1] (setting [4])) was more than 10000 nM in each case. Besides, the IC50 in the experiment with NCI-H1568 cells is more than 10000 nM.
Consider `CN1CCN(c2nc(=O)c3c(I)cccc3o2)CC1` [compound 16], for which the DC50 at SMARCA4 (RKO (4 h)), at SMARCA4 (RKO (18 h)), at SMARCA2 (setting [5]) and on SMARCA2 (setting [6]) was more than 25000 nM each time. For the same molecule, the EC50 (on PBRM1 BD (setting [2]); at PBRM1 BD (setting [3]); in the experiment with NCI-H1568 cells; in experiment [1] (setting [4])) was more than 10000 nM each time. The IC50 with NCI-H1568 cells was more than 10000 nM.
Take `CN1CCN(c2nc(=O)c3c(F)cccc3o2)CC1` [compound 17]: the DC50 at SMARCA4 (RKO (4 h)), at SMARCA4 (RKO (18 h)), on SMARCA2 (setting [5]) and on SMARCA2 (setting [6]) was more than 25000 nM each time. Also, the EC50 (on PBRM1 BD (setting [2]); at PBRM1 BD (setting [3]); in the experiment with NCI-H1568 cells; in experiment [1] (setting [4])) was more than 10000 nM in each case. Further, the IC50 with NCI-H1568 cells was more than 10000 nM.
As for `Cc1ncsc1-c1ccc(CNC(=O)[C@@H]2C[C@H](O)CN2C(=O)[C@@H](NC(=O)C2(F)CC2)C(C)(C)C)c(OCCN2CCC(c3ccc4c(c3)n(C3CCCC3)c3nc(=O)c5c(Br)cccc5n43)CC2)c1` [compound 19], the DC50 on SMARCA4 (RKO (4 h)), on SMARCA4 (RKO (18 h)), at SMARCA2 (setting [5]) and on SMARCA2 (setting [6]) was more than 25000 nM each time. The EC50 at PBRM1 BD (setting [2]) was 38.5 nM and 41 nM and 40.2 nM; at PBRM1 BD (setting [3]) it was 35.2 nM and 39.5 nM and 40.1 nM; in the experiment with NCI-H1568 cells it was 564 ± 384 nM; in experiment [1] (setting [7]), 85 ± 7 nM; in experiment [1] (setting [4]), 79.1 nM and 82 nM and 94.2 nM. Moreover, the IC50 with NCI-H1568 cells was 595 nM and 1050 nM and 287 nM.
Take `Cc1ncsc1-c1ccc(CNC(=O)[C@@H]2C[C@@H](O)CN2C(=O)[C@@H](NC(=O)C2(F)CC2)C(C)(C)C)c(OCCN2CCC(c3ccc4c(c3)n(C3CCCC3)c3nc(=O)c5c(Br)cccc5n43)CC2)c1` [compound 20]: the DC50 on SMARCA4 (RKO (4 h)), on SMARCA4 (RKO (18 h)) and on SMARCA2 (setting [5]) was more than 25000 nM each time. The EC50 was 30.2 nM and 37.8 nM and 37.5 nM on PBRM1 BD (setting [2]); 35.1 nM and 43.6 nM and 36.5 nM and 35.9 nM at PBRM1 BD (setting [3]); 74 ± 52 nM with NCI-H1568 cells; 78 ± 20 nM in experiment [1] (setting [7]); 95.1 nM and 98.5 nM and 63.7 nM and 90.1 nM and 54.6 nM in experiment [1] (setting [4]). The IC50 in the experiment with NCI-H1568 cells is 80.9 nM and 35.3 nM and 140 nM.
On to `Cc1ncsc1-c1ccc(CNC(=O)[C@@H]2C[C@@H](O)CN2C(=O)[C@@H](NC(=O)C2(F)CC2)C(C)(C)C)c(OCCOCCOCCN2CCC(c3ccc4c(c3)n(C3CCCC3)c3nc(=O)c5c(Br)cccc5n43)CC2)c1` [compound 21], for which the DC50 was 21 ± 19 nM at SMARCA4 (RKO (4 h)); 83 ± 78 nM on SMARCA4 (RKO (18 h)); more than 25000 nM at SMARCA2 (setting [5]); 77.5 nM and 151 nM and 100 nM at SMARCA2 (setting [6]). The “SMARCA4 Dmax” value is 61 ± 16% on SMARCA4 (RKO (4 h)) and 75 ± 3% at SMARCA4 (RKO (18 h)). Further, the EC50 on PBRM1 BD (setting [2]) is 33.9 nM and 37.8 nM and 41.4 nM; at PBRM1 BD (setting [3]), 71.9 nM and 80.2 nM and 77.4 nM; in the experiment on NCI-H1568 cells, 223 ± 30 nM; in experiment [1] (setting [7]) it was 255 ± 9 nM; in experiment [1] (setting [4]), 246 nM and 264 nM and 255 nM. Moreover, the IC50 with NCI-H1568 cells is 257 nM and 199 nM and 216 nM.
